These results are taken from patent publication US9062088B2, “CDK-inhibiting pyrrolopyrimidine carboxamide derivative or pharmaceutically acceptable salt thereof, and pharmaceutical composition containing the same as active ingredient for preventing or treating hepatocellular carcinoma” (SNU R&DB Foundation, priority 2010, dated 2015).

Experiment [1] concerns SNU-354 xenografted tumor. The experiment is described as follows: TUNEL assay and cleaved caspase-3 immunohistochemistry of xenografted tumor. It counts as in vivo, nude mice. To be noted: 4 and 20 mg/kg vs control; FIG. 23-A. Here is the method: All the xenografted tumors and liver tissues extracted above were fixed in 36% formaldehyde solution (Junsei Chemical Co., Ltd, Tokyo, JAPAN), followed by paraffin embedding. The embedded tissues were cut into 5 μm sections. H&E staining and TUNEL assay were performed for examining apoptosis with those sections. The expression of cleaved caspase-3 in the tissue section was measured by using cleaved caspase-3 monoclonal antibody (Cell Signaling, MA, USA). ABC peroxidase (Dako Cytomation California, Inc., CA, USA) labeling was performed for immunological sensitization and the results are shown in FIG. 23. As shown in FIG. 23-A, TUNEL positive spots and caspase-3 positive spots were observed more in the group treated with the compound of Example 2 than in the control. […] As shown in FIG. 23-B, it was investigated whether or not the compound of Example 2 could affect normal liver tissues.

Experiment [2] relates to caspase-3 activity in SNU-354 cells. As to the kind of experiment: Measurement of caspase-3 activity (Experimental Example 1-6-2). It counts as cell-based, human. As for the experimental part:
SNU-354 cells treated with the compounds of Examples 1 and 2 were lysed with lysis buffer (0.5% triton X-100, 20 mM Tris-HCl (pH 7.5), 2 mM magnesium chloride, 1 mM DTT, 1 mM EGTA, 50 mM β-glycerophosphate, 25 mM sodium fluoride, 1 mM Na3VO4, 2 μg/mL leupeptin, 2 μg/mL pepstatin A, 100 μg/mL phenylmethylsulfonyl fluoride, 1 μg/mL antipain). The protease analysis buffer necessary for the reaction (20 mM HEPES (pH 7.5), 10% glycerol, 2 mM DTT) was mixed with 20 μM Ac-DEVD-AMC (BD Biosciences, CA, USA) and cell lysates, followed by reaction at 37° C. for 1 hour. Upon completion of the reaction, caspase-3 activity was measured at 380 nm of excitation and 460 nm of emission with spectrofluorometer (TECAN, Switzerland) and the results are shown in FIG. 18 and Table 8.

Experiment [3] has as its system Cdk9. The experiment is described as follows: Western blotting of Cdk9 activity (phospho RNA Pol II Ser 2). It counts as cell-based, human. To be noted: 0 nM = 100. Here is the method:
After treating the compound of Example 2 to SNU-354 cells, cell pellet was lysed with lysis buffer (0.5% triton X-100, 20 mM Tris-HCl (pH 7.5), 2 mM magnesium chloride, 1 mM DTT, 1 mM EGTA, 50 mM β-glycerophosphate, 25 mM sodium fluoride, 1 mM Na3VO4, 2 μg/mL leupeptin, 2 μg/mL pepstatin A, 100 μg/mL phenylmethylsulfonyl fluoride, and 1 μg/mL antipain) at 4° C. for 1 hour, followed by quantification of protein. A proper amount of protein was electrophoresed on SDS-PAGE gel and then transferred onto polyvinylidene difluoride membrane (Millipore Co., Bedford, Mass.). The membrane was reacted in inhibiting solution (PBS, 5% skim milk, 0.1% tween-20) at room temperature for 1˜2 hours. The membrane was reacted with the primary antibody (goat anti-phospho-Rb, rabbit anti-nucleolin) diluted in the inhibiting solution (1:1000). Then, the membrane was washed with PBST, followed by reaction with the proper secondary antibody (horseradish peroxidase (HRP) conjugated) at room temperature for 1 hour.
Experiment was performed by the same manner as described in step 2 of Experimental Example 1 except that rabbit anti-phospho RNA Pol II (Ser 5) and rabbit anti-phospho RNA Pol II (Ser 2) (from Bethyl, TX, USA) were used as primary antibodies. The results are shown FIG. 9˜FIG. 12, and Table 4 and Table 5.
For orientation: In western blotting, separated proteins are transferred to a membrane and probed.

Experiment [4] deals with T1, Cdk2/cyclin A (Homo sapiens, UniProt P24941).
T1 construct: purchased Upstate
As to the kind of experiment: In vitro kinase activity assay, histone H1 phosphorylation by Cdk2/cyclin A. The class given is biochemical. Conditions: for Phosphorylation (%) Cdk2: 0 nM = 100%. Here is the method:
To kinase assay buffer (50 mM Tris (pH 7.4), 10 mM magnesium chloride, 1 mM EGTA, 40 mM β-glycerophosphate, 0.1 mM Na3VO4, 1 mM DTT, 0.1 μg/mL leupeptin, 0.1 μg/mL pepstatin A, 0.1 μg/mL antipain and 1 mM phenylmethylsulfonyl fluoride) were added 5 μg histone H1 as a substrate, 20 ng Cdk1/cyclin B or 40 ng Cdk2/cyclin A recombinant protein (Upstate, NY, USA) as an enzyme, 2.5 μCi [γ-32P]ATP, and 100 μM MgAc/ATP. The total reaction volume was adjusted to 50 μl. The compound of Example 2 was added to the reaction mixture, followed by inducing kinase reaction at 30° C. for 20 minutes. Upon completion of the reaction, the reaction mixture proceeded to electrophoresis on 12% SDS-polyacrylamide gel. Phosphorylation levels of Cdk1 and Cdk2 over the concentrations of the compound of Example 2 were confirmed by autoradiography, and the results are shown in FIG. 1, FIG. 2, and Table 1.
(§1) The intensity of bands was analyzed by densitometry (GS-800, Bio-Rad).

Experiment [5] deals with T2, Cdk7/cyclin H/MAT1 (Homo sapiens, UniProt P50613).
T2 construct: purchased Upstate
The experiment is described as follows: In vitro kinase assay of Cdk7, RNA Pol II-CTD-GST substrate. It counts as biochemical. Conditions: 0 nM = 100. Here is the method:
To kinase assay buffer were added RNA Pol II-CTD-GST protein (Jena Bioscience, Germany) as a substrate, Cdk9/cyclin T1 or Cdk7/cyclin H/MAT1 recombinant protein (Upstate) as an enzyme, 2.5 μCi [γ-32P]ATP, and 100 μM MgAc/ATP. The total reaction volume was adjusted to 50 μl. Kinase assay reaction was induced at 30° C. for 20 minutes. Upon completion of the reaction, electrophoresis was performed on 8% SDS-polyacrylamide gel. The activities of Cdk7 and Cdk9 over the concentrations of the compounds of Example 1 and Example 2 were confirmed by autoradiography and the results are shown in FIG. 5˜FIG. 8 and Table 3.
as §1

Experiment [6] concerns SNU-354 cells. As to the kind of experiment: MTT assay, cell viability. The class given is cell-based. To be noted: Homo sapiens, SNU-354, read-out: Cell viability (%). Here is the method:
Cell viability was measured by MTT assay. SNU-354 cells in the log phase of cell growth curve were distributed in a 24-well plate at the density of 2×10^4 cells/well. […] After allowing enough time for reaction, MTT reagent (MTT dissolved in PBS at the concentration of 5 mg/mL) (Sigma-Aldrich, USA) was added to each well, followed by reaction at 37° C. for 3 hours. Then, the supernatant was eliminated and the precipitated formazan crystals were dissolved in dimethyl sulfoxide, followed by measurement of absorbance with ELISA plate reader.
Background: Formazan colour is commonly taken as a measure of viable cells.

T2 sequence (P50613 whole entry): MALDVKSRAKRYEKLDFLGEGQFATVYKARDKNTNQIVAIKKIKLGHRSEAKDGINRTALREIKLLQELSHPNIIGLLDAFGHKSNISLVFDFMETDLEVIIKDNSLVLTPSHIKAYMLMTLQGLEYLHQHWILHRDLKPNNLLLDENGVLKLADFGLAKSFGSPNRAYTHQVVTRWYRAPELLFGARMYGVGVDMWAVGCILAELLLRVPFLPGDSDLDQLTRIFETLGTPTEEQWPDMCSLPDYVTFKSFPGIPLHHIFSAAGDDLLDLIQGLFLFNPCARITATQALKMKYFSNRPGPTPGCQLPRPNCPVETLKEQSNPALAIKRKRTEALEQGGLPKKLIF
T2 sequence (P51946 whole entry partner): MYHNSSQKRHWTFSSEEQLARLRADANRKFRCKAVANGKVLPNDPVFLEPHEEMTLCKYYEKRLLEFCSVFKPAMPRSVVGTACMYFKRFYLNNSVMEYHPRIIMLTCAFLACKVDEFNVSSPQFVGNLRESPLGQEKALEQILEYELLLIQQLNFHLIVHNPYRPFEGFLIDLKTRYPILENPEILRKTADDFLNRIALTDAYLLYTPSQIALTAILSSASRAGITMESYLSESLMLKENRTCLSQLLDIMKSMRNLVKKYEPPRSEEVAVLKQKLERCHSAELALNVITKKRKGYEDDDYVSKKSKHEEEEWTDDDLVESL
T2 sequence (P51948 whole entry partner): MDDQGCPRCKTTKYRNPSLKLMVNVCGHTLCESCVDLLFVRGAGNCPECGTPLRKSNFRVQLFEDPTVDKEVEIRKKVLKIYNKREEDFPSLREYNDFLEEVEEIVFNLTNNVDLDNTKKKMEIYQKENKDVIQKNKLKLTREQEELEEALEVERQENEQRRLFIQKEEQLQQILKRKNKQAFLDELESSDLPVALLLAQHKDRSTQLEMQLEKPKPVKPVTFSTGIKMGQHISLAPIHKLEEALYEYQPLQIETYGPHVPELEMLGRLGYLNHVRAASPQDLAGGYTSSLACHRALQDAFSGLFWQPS

`CC(C)C(=O)OC[C@@H]1O[C@H](n2cnc(N)c3c(C(N)=O)c(Br)nc2-3)[C@H](O)[C@H]1O` [Example 2, ((2S,3R,4R,5S)-5-(4-amino-6-bromo-5-carbamoyl-1H-pyrrolo[2,3-d]pyrimidin-1-yl)-3,4-dihydroxy-tetrahydrofuran-2-yl)methyl isobutyrate]: in experiment [1], the “TUNEL positive spots and caspase-3 positive spots in xenografted tumor” value is reported as “observed more”. In experiment [2] (0.5 uM and up), the “caspase-3 activity relative to the control” value is 7 times. The Cdk9 activity came out at 81.5% in experiment [3] (0.1 nM); 27.3% in experiment [3] (0.5 nM); 11% in experiment [3] (1 nM); 2.2% in experiment [3] (5 nM); 1.1% in experiment [3] (10 nM); 0.7% in experiment [3] (50 nM). The “Phosphorylation (%) Cdk2” value worked out at 86.5% in experiment [4] (10 nM); 75.0% in experiment [4] (20 nM); 59.0% in experiment [4] (40 nM); 50% in experiment [4] (50 nM); 43.0% in experiment [4] (60 nM); 39.2% in experiment [4] (80 nM). In experiment [4] (100 nM), the “Phosphorylation (%) Cdk2” value is 4.5%. For the same compound, the IC50 in experiment [4] (histone H1 phosphorylation) came out at 50 nM. The Cdk7 activity is on record as 92.2% in experiment [5] (10 nM), 91.1% in experiment [5] (100 nM) and 6.5% in experiment [5] (1000 nM). Besides, the viability at 0.5 µM in experiment [6] was 86.3%. In experiment [6], the viability at 1 µM was 75.5%. For the same compound, in experiment [6], the viability at 2 µM was 64.7%. The viability at 5 µM in experiment [6] amounted to 47.6%. For the same compound, in experiment [6], the viability at 10 µM was 35.4%. For the same compound, the viability at 50 µM in experiment [6] was 16.8%.

Regarding `NC(=O)c1c(Br)nc2n([C@H]3O[C@@H](CO)[C@H](O)[C@H]3O)cnc(N)c1-2` [Example 1, 4-amino-6-bromo-1-((2S,3R,4R,5S)-3,4-dihydroxy-5-(hydroxymethyl)-tetrahydrofuran-2-yl)-1H-pyrrolo[2,3-d]pyrimidine-5-carboxamide], the “caspase-3 activity relative to the control” value in experiment [2] (1.0 uM and up) was “three times as high as that of the control”. Besides, the Cdk9 activity in experiment [3] (0.1 nM) came to 90.4%; in experiment [3] (0.5 nM) it was 87.0%; in experiment [3] (1 nM), 46.1%; in experiment [3] (5 nM), 1.9%; in experiment [3] (10 nM), 1.3%; in experiment [3] (50 nM), 0.2%. Moreover, the Cdk7 activity in experiment [5] (10 nM) was determined as 41.8%; in experiment [5] (100 nM) it was 10.8%; in experiment [5] (1000 nM), 5.8%. Further, the viability at 0.5 µM in experiment [6] turned out to be 96.4%. Further, in experiment [6], the viability at 1 µM was 84.3%. For the same compound, in experiment [6], the viability at 2 µM was 74%. The viability at 5 µM in experiment [6] worked out at 68%. Also, the viability at 10 µM in experiment [6] was found to be 55.6%. For the same compound, in experiment [6], the viability at 50 µM is 36.6%.

One may read the IC50 as the midpoint of a concentration-inhibition curve. Usually viability stands for a read-out of living cells in per cent, often relative to untreated cells.
